{"source": "PubChem BioAssay AID179", "about": "(DTP/NCI, 2004)", "tested_on": "CEM cells HIV-1 protection, formazan growth assay", "experiment": "NCI AIDS Antiviral Assay", "settings": "for IC50: measured here: growth of uninfected CEM cells", "summary_of_the_method": "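CEM (human) cells, HIV-1 infected vs uninfected, 5-point dosing, formazan growth read-out. Retest threshold 50% protection.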", "note": "Where “and” joins values, the source holds several entries; their conditions need not be identical. Identical values can stand only once. Calls of active or inactive are those of the source.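 The calls were made as follows: active = compounds giving half or more protection of infected cells from virus-caused growth loss, again on retest; inactive = the rest.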", "data": [{"smiles": "COc1ccc(/C=C/C(=O)C(C)C)cc1", "values": [{"measurement": "EC50", "value": "> 200", "unit": "µM"}, {"measurement": "IC50", "value": 33.9, "unit": "µM"}]}, {"smiles": "CN(C(=O)/C=C/c1ccccc1)C1C2CN3CCC(O2)C13", "note": "(stereo not given)", "values": [{"measurement": "outcome", "value": "inactive"}]}, {"smiles": "CN(C)CCNC(=O)c1cccc(N(C)C(=O)c2ccccc2)c1[N+](=O)[O-]", "values": [{"measurement": "EC50", "value": "> 200", "unit": "µM"}, {"measurement": "IC50", "value": "> 200", "unit": "µM"}]}, {"smiles": "CC(=O)N(C(C)=O)c1nc2c(c(=O)n(C)c(=O)n2C)n1C", "values": [{"measurement": "EC50", "value": "> 200", "unit": "µM"}, {"measurement": "IC50", "value": "> 200", "unit": "µM"}]}, {"smiles": "O=C1CC(c2ccsc2)n2cccc21", "note": "(stereo not given)", "values": [{"measurement": "EC50", "value": 186, "unit": "µM"}, {"measurement": "IC50", "value": "> 200", "unit": "µM"}]}, {"smiles": "COc1ccc(-c2nc(-c3ccc(OC)cc3)n(-c3ccccc3)n2)cc1", "values": [{"measurement": "EC50", "value": "> 200", "unit": "µM"}, {"measurement": "IC50", "value": 58.9, "unit": "µM"}]}, {"smiles": "Cn1c2ccccc2c2ncc3[nH]c4ccccc4c3c21", "values": [{"measurement": "outcome", "value": "inactive"}]}, {"smiles": "CCN(CC)CCNc1ccc(CO)c2oc3ccc(O)cc3c(=O)c12", "values": [{"measurement": "EC50", "value": "> 191", "unit": "µM"}, {"measurement": "IC50", "value": 1.32, "unit": "µM"}]}, {"smiles": "CC(=O)/C(=C/c1ccc(N(C)C)cc1)c1ccccc1", "values": [{"measurement": "EC50", "value": "> 19.5", "unit": "µM"}, {"measurement": "IC50", "value": "> 19.5", "unit": "µM"}]}, {"smiles": "CCN(CC)CCNc1ccc2ncn3c4c(OC)ccc(OC)c4c(=O)c1c23", "values": [{"measurement": "EC50", "value": "> 50.1", "unit": "µM"}, {"measurement": "IC50", "value": 1.23, "unit": "µM"}]}, {"smiles": "[O-]/[N+]1=[N+](\\[O-])c2ccccc2COCc2ccccc21", "values": [{"measurement": "outcome", "value": "inactive"}]}, {"smiles": "CCOC(=O)CCCN(c1[nH]c(C)c(C)c1C#N)S(=O)(=O)c1ccc(C)cc1", "values": [{"measurement": "EC50", "value": "> 200", "unit": "µM"}, {"measurement": "IC50", "value": 81.3, "unit": "µM"}]}, {"smiles": "Cc1ccc(S(=O)(=O)N2CCCC2C(=O)NNC(N)=S)cc1", "note": "(stereo not given)", "values": [{"measurement": "EC50", "value": "> 200", "unit": "µM"}, {"measurement": "IC50", "value": 117, "unit": "µM"}]}, {"smiles": "CC1(C)CC(=O)c2c(nc3c(ccc4ccccc43)c2-c2ccc(NC(=O)CCCC(=O)Nc3ccc(-c4c5c(nc6c4ccc4ccccc46)CC(C)(C)CC5=O)cc3)cc2)C1", "values": [{"measurement": "EC50", "value": "> 50.1", "unit": "µM"}, {"measurement": "IC50", "value": "> 50.1", "unit": "µM"}]}, {"smiles": "C=Cc1c2[n-]c(c1C)/C=c1\\[n-]/c(c(C)c1C=C)=C\\c1[n-]c(c(CCC(=O)O)c1C)/C=c1\\[n-]/c(c(C)c1CCC(=O)O)=C\\2.[Co]", "values": [{"measurement": "EC50", "value": "> 74.1", "unit": "µM"}, {"measurement": "IC50", "value": "> 74.1", "unit": "µM"}]}, {"smiles": "CCOP(C)(=O)C(N)Cc1ccc(OC)c(OC)c1", "note": "(stereo not given)", "values": [{"measurement": "EC50", "value": "> 200", "unit": "µM"}, {"measurement": "IC50", "value": "> 200", "unit": "µM"}]}, {"smiles": "COc1cc(CC2COC(=O)[C@@H]2Cc2ccc(O)c(OC)c2)ccc1O", "note": "(stereo not given in full)", "values": [{"measurement": "EC50", "value": "> 200", "unit": "µM"}, {"measurement": "IC50", "value": 95.5, "unit": "µM"}]}, {"smiles": "O=c1[nH]c(=S)[nH]c2c1CN(CCCN1CCOCC1)CN2", "values": [{"measurement": "EC50", "value": "> 794", "unit": "µM"}, {"measurement": "IC50", "value": 49, "unit": "µM"}]}, {"smiles": "COc1cc(OC)nc(-n2c(N)c(C#N)c3ccc([N+](=O)[O-])cc3c2=O)n1", "values": [{"measurement": "EC50", "value": "> 200", "unit": "µM"}, {"measurement": "IC50", "value": "> 200", "unit": "µM"}]}, {"smiles": "CSc1c(C#N)c(S)[nH]c(=O)c1C#N", "values": [{"measurement": "EC50", "value": 83.2, "unit": "µM"}, {"measurement": "IC50", "value": 126, "unit": "µM"}]}, {"smiles": "CCCN(CCCC(NC(C)=O)C(=O)NCc1ccccc1)C(=O)N(CCCl)N=O", "note": "(stereo not given)", "values": [{"measurement": "outcome", "value": "inactive"}]}, {"smiles": "Cn1c(-c2ccccc2)c(CCNC(=O)C2CCC2)c2ccccc21", "values": [{"measurement": "EC50", "value": "> 200", "unit": "µM"}, {"measurement": "IC50", "value": 31.6, "unit": "µM"}]}, {"smiles": "NC1=NC2=C(CCCC2)C(c2cccs2)S1", "note": "(stereo not given)", "values": [{"measurement": "EC50", "value": "> 145", "unit": "µM"}, {"measurement": "IC50", "value": "> 145", "unit": "µM"}]}, {"smiles": "CCC(=O)[CH-]C(=O)CC.CCC(=O)[CH-]C(=O)CC.[Cu+2]", "values": [{"measurement": "EC50", "value": "> 200", "unit": "µM"}, {"measurement": "IC50", "value": 24.5, "unit": "µM"}]}, {"smiles": "CCCCC(O)(Cc1ccccc1)c1ccc(OCCN(CC)CC)cc1", "note": "(stereo not given)", "values": [{"measurement": "EC50", "value": "> 200", "unit": "µM"}, {"measurement": "IC50", "value": 14.1, "unit": "µM"}]}, {"smiles": "CCCC(CC)C(C(=O)OCC)C1=NC(C)(C)CC(C)O1", "note": "(stereo not given)", "values": [{"measurement": "EC50", "value": "> 200", "unit": "µM"}, {"measurement": "IC50", "value": "> 200", "unit": "µM"}]}, {"smiles": "Nc1ncnc2c1ncn2C1OC(CO)CC1F", "note": "(stereo not given)", "values": [{"measurement": "IC50", "value": "> 200 µM and 191 µM"}]}, {"smiles": "O=C(O)c1cc(Nc2nc(Cl)nc(Cl)n2)ccc1-c1c2ccc(=O)cc-2oc2cc(O)ccc12", "values": [{"measurement": "EC50", "value": 38, "unit": "µM"}, {"measurement": "IC50", "value": 692, "unit": "µM"}]}, {"smiles": "O=c1[nH]c2cc([N+](=O)[O-])ccc2nc1/C(=N/Nc1ccccc1)C(O)c1ccco1", "note": "(stereo not given)", "values": [{"measurement": "EC50", "value": "> 234", "unit": "µM"}, {"measurement": "IC50", "value": 89.1, "unit": "µM"}]}, {"smiles": "CCOC(=O)C1=C(NC)OC/C1=N\\NC(=O)c1ccccc1O", "values": [{"measurement": "EC50", "value": "> 93.3", "unit": "µM"}, {"measurement": "IC50", "value": 14.1, "unit": "µM"}]}]}
